Assay results reported in patent EP0233031B1, “Methylthioribose analogues, their preparation and use as medicinal agents and biocides” (STATE OF OREGON BY AND THROUGH OREGON STATE BOARD OF HIGHER …, priority 1986, dated 1987).
Blank lines part the entries; values can stand above or below the molecule they belong to.

What was measured:
Assay type in all cases: cell-based
Candida albicans [1] = test: Growth inhibition of Candida albicans in LB broth (optical density / visible growth); conditions: for OD550 at 24 Hrs / OD550 24 hrs / OD550 7 days: 10^4 cells; for OD550 at 24 Hrs: LB broth
Procedure: In the following examples, an MTR kinase-dependent microorganism is treated in vitro with compounds of this invention. In the following examples, LB is a growth medium (Luria-Bertani) containing, per liter, 10 grams Bacto-tryptone, 5 grams Bacto-yeast extract and 10 grams NaCl. OD₅₅₀ is a measure of the optical density of the suspension at the indicated time. Low optical density indicates a low cell concentration in the suspension and thus that compounds were effective to inhibit the growth of the microorganisms.

Candida albicans [2] = test: Colony count of Candida albicans after incubation with ETR (cytocidal vs cytostatic); conditions: for Total # Organisms: colonies x dilution factor 200; for Colonies: 10^3 orgs, 100 l of 1:10 dilution plated
Source text: In this example, samples containing a known number of microorganisms were colonized without ETR and in the presence of ETR. In the instances where growth occurred, one colony formed for each microorganism.

mouse marrow = test: CFU-GM assay, toxicity toward mouse marrow
Source text: In the following examples, human bone marrow and mouse marrow cells were subjected to ethylthioribose. In each case, a preparation of immature blood cells from bone marrow were conventionally stimulated to mature in a gel matrix. Immature human granulocytic precursor (CFU-GM) cells formed a colony in the matrix and the number of cells in the colony was counted. Such tests are believed to be a good measure of the toxicity of the subject compounds to humans.

[3] = system: Ochromonas malhamensis (ATCC #11532); test: Toxicity to Ochromonas malhamensis culture (cell number by hemacytometer); conditions: Poterioochromonas malhamensis, ATCC11532; 48 hours of incubation; thioglycolate broth; 4x10^4 cells per ml; read-out: ID50 (the source's name)
Procedure: • a. Procedure. 2 ml cultures of O. malhamensis were set up at a cell density of 4x10⁴ per ml. The culture medium used was thioglycolate broth and incubation took place at ambient temperature near a south-facing window (these organisms are photosynthetic). ETR was added at the appropriate dilution at the beginning of the experiment. Cell number was determined using a hemacytometer. The data (shown below) were obtained after 48 hours of incubation. • b. Results. [formula]

[4] = system: Giardia lamblia (Portland 1 strain); test: Inhibition of Giardia lamblia culture (cell number by hemacytometer)
Procedure: • a. Procedure. Giardia lamblia was cultured in Diamond's TP-S-1 medium supplemented with 10% heat-inactivated calf serum and antibiotics (penicillin and streptomycin). The antibiotics were added to prevent contamination by bacteria. Tube cultures containing 7 mls of medium were seeded with 5 x 10⁴ organisms per ml and incubated horizontally at 37°C for 48 hrs. ETR was added at the beginning of the experiment. Cell number was determined with the aid of a hemacytometer. • b. Results. [formula]

Plasmodium falciparum = Plasmodium falciparum in vitro erythrocyte culture, Giemsa-stained thin smears
Procedure: • a. Procedure. Parasitized erythrocytes from a stock four-day-old culture at approximately 10% infection were mixed with washed clean erythrocytes to give a final parasitemia of approximately 1%. Using 1.2 cm plastic Petri dishes duplicate 1 ml cultures were initiated with drug dilutions in complete RPMI-1640, containing 0.1 ml of erythrocytes and 50 ug of gentamycin/ml. The cultures were supplemented with RPMI-1640 (25 mM HEPES), 0.24% sodium bicarbonate and 10% human serum (Type A⁻). All cultures were gassed with 90% nitrogen, 5% carbon dioxide and 5% oxygen prior to incubation at 37°C. Parasite growth was assessed by microscopic evaluation of Giemsa-stained thin-smears. • b. Results. [formula]

IC50 ([4]; Giardia duodenalis, 48 hrs at 37°C, 5 x 10^4 organisms per ml, read-out: ID50 (the source's name)): ~450 µM
Structure (SMILES): CCSC[C@H]1OC(O)[C@H](O)[C@@H]1O (some centres unmarked) [ETR, 5-ethylthio-5-deoxyribose]
OD550 at 24 Hrs (Candida albicans [1]; ETR 0.092mM): 0.409 | OD550 at 24 Hrs (Candida albicans [1]; ETR 0.23mM): 0.355 | OD550 at 24 Hrs (Candida albicans [1]; ETR 0.46mM): 0.357 | OD550 at 24 Hrs (Candida albicans [1]; ETR 0.9mM): 0.120 | OD550 at 24 Hrs (Candida albicans [1]; ETR 2.3mM): 0.0 | OD550 at 24 Hrs (Candida albicans [1]; ETR 4.6mM): 0.0 | OD550 at 24 Hrs (Candida albicans [1]; ETR 9.2mM): 0.0 | growth of Candida albicans (Candida albicans [1]; conclusion of Examples 17 and 18): clearly inhibits the growth | Total # Organisms (Candida albicans [2]; 3 hrs (+ETR) 4mM): 400 | Colonies (Candida albicans [2]; 3 hrs incubation with ETR 0.5ml (4mM)): 2 | Total # Organisms (Candida albicans [2]; 5 hrs (w/ETR) 4mM): 0 | Colonies (Candida albicans [2]; 5 hrs incubation with ETR 1.5ml (4mM)): 0 | cytocidal as opposed to cytostatic (Candida albicans [2]; conclusion of Example 19): cytocidal | colonies formed in the presence of ETR (Candida albicans [2]; summary statement of Example 19): less than 1,000 colonies | CFU-GM (mouse marrow; ETR 100 (1:1)): 34 -- | CFU-GM (mouse marrow; ETR 100 (1:1k), duplicate counts): 36,37 | CFU-GM (mouse marrow; ETR 100 (1:2), duplicate counts): 37,33 | CFU-GM (mouse marrow; ETR 100 (1:4), duplicate counts): 32,34 | CFU-GM (mouse marrow; ETR 100 (1:10), duplicate counts): 36,34 | CFU-GM (mouse marrow; ETR 100 (1:10k), duplicate counts): 35,32 | CFU-GM (mouse marrow; ETR 100 (1:20k), duplicate counts): 32,34 | CFU-GM (mouse marrow; ETR 100 (1:40), duplicate counts): 33,35 | CFU-GM (mouse marrow; ETR 100 (1:50), duplicate counts): 37,36 | CFU-GM (mouse marrow; ETR 100 (1:100)): 39 -- | CFU-GM (mouse marrow; ETR 100 (1:100k), duplicate counts): 33,35 | CFU-GM (mouse marrow; ETR 100 (stock), duplicate counts): 35,36 | IC50 [3]: 20 µM | cell death and lack of "swimming" ([4]; concentrations ranging from 0.62mM to 5mM): significant cell death and lack of "swimming" | parasitemia (Plasmodium falciparum; 24 hours, 1mM ETR): remained at or below the level of the initial inoculum | parasite growth (Plasmodium falciparum; 24 hours, 1 mM ETR (lowest concentration tested)): a small increase in growth was noted but the parasites appeared abnormal | parasitemia (Plasmodium falciparum; 24 hours, 5mM ETR): remained at or below the level of the initial inoculum | parasitemia (Plasmodium falciparum; 48 hours, 1 mM ETR (lowest concentration tested), initial seeding <1.0%): less than 0.1% | infection (Plasmodium falciparum; 72 hours, 1 mM ETR (lowest concentration tested)): less than 1 parasite per 10,000 red cells | culture infection (Plasmodium falciparum; 72 hours, all drug-treated cultures): completely negative | reappearance of parasitemia (Plasmodium falciparum; after 5 days (the last 3 days without drug)): did not reappear | inhibition of P. falciparum in vitro (Plasmodium falciparum; overall conclusion): inhibitory

Structure (SMILES): OC1O[C@H](CCl)[C@@H](O)[C@H]1O (some centres unmarked) [5-Chloro-5-Deoxyribose, 5-deoxy-5-chlororibose]
OD550 24 hrs (Candida albicans [1]; 0.2 of 10mM stock + LB 1.8): 0.0 | OD550 7 days (Candida albicans [1]; 0.2 of 10mM stock + LB 1.8): 0.0 | OD550 24 hrs (Candida albicans [1]; 0.4 of 10mM stock + LB 1.6): 0.0 | OD550 7 days (Candida albicans [1]; 0.4 of 10mM stock + LB 1.6): 0.0 | OD550 24 hrs (Candida albicans [1]; 0.8 of 10mM stock + LB 1.2): 0.0 | OD550 7 days (Candida albicans [1]; 0.8 of 10mM stock + LB 1.2): 0.0 | killing of Candida albicans (Candida albicans [1]; conclusion of Example 20): effective to kill
